Like-named read-outs stand apart in the source and are kept apart here.
What was measured:
CYP3A [1] = settings: in the presence of fluconazole and voriconazole; cited from earlier work
[2] = cited from earlier work
[3] = both, human, plasma, oral, 2 mg
CYP3A [4] = test system: CYP3A
[5] = Literature estimates of intestinal availability; parameters: species or system human; settings: translated from FaFg 0.28
OATP1B and BCRP = settings: clinical DDI study; cited from earlier work
[6] = Clinical DDI study part 2: effect of fenebrutinib on PK of rosuvastatin; settings: both, human, plasma, oral, 20 mg
BCRP and OATP1B = assay: as above; settings: both, human, plasma, oral
[7] = MDZ coadministered with fenebrutinib 200 mg b.i.d. vs MDZ alone
[8] = both, human, plasma, oral, 2 mg

OCc1ncc2n1-c1ccc(Cl)cc1C(c1ccccc1F)=NC2 [1′‐hydroxymidazolam]
exposure increase in the presence of other CYP3A inhibitors (CYP3A [1]): ~ 1.5 fold

Cc1ncc2n1-c1ccc(Cl)cc1C(c1ccccc1F)=NC2 [MDZ, midazolam]
intestinal availability (FaFg) [2]: 48% | Cmax [3]: 8.54 ng/mL | half-life [3]: 6.23 h | AUC0−t, fold higher with fenebrutinib vs alone (CYP3A [4]; [7]): ~ 1.99 fold | Cmax, fold higher with fenebrutinib vs alone (CYP3A [4]; [7]): ~ 1.74 fold | half-life (CYP3A [4]; both, human, plasma, oral): 6.68 h | AUC(0-inf) (CYP3A [4]; [8]): 20.5 ng·h/mL | AUC(0-t) (CYP3A [4]; [8]): 19.2 ng·h/mL

CC(C)c1nc(N(C)S(C)(=O)=O)nc(-c2ccc(F)cc2)c1/C=C/[C@@H](O)C[C@@H](O)CC(=O)O [Rosuvastatin, rosuvastatin]
maximum AUC increase if FaFg increased to 1 with intestinal BCRP inhibition [5]: 3.6 fold | FaFg ([2]; estimated, ref Tanaka et al.23): 0.28 | exposure increase in the presence of eltrombopag (OATP1B and BCRP): 55% | AUC(0-inf) [6]: 93 ng·h/mL | Cmax [6]: 9.08 ng/mL | half-life [6]: 19.9 h | half-life (BCRP and OATP1B): 18.2 h | AUC(0-t) (BCRP and OATP1B; 20 mg): 91 ng·h/mL
